Laboratory results published in the NIST ThermoML archive (doi:10.1016/j.tca.2017.12.013).

Assay: molar heat capacity at constant pressure
Details: 101.33 kPa, DSC

[Ag+].[Ag+].[S-2] [silver sulfide]
Details | molar heat capacity at constant pressure [J/K/mol]
617.82 K, Crystal 2 | 86.15
618.82 K, Crystal 2 | 86.13
619.82 K, Crystal 2 | 86.1
620.82 K, Crystal 2 | 86.08
621.82 K, Crystal 2 | 86.05
622.82 K, Crystal 2 | 86.03
623.82 K, Crystal 2 | 86.01
624.82 K, Crystal 2 | 85.99
625.82 K, Crystal 2 | 85.96
626.82 K, Crystal 2 | 85.94
627.82 K, Crystal 2 | 85.92
628.82 K, Crystal 2 | 85.9
629.82 K, Crystal 2 | 85.88
630.82 K, Crystal 2 | 85.86
631.82 K, Crystal 2 | 85.84
632.82 K, Crystal 2 | 85.82
633.82 K, Crystal 2 | 85.8
634.82 K, Crystal 2 | 85.78
635.82 K, Crystal 2 | 85.76
636.82 K, Crystal 2 | 85.74
637.82 K, Crystal 2 | 85.73
638.82 K, Crystal 2 | 85.71
639.82 K, Crystal 2 | 85.7
640.82 K, Crystal 2 | 85.7
641.82 K, Crystal 2 | 85.69
642.82 K, Crystal 2 | 85.67
643.82 K, Crystal 2 | 85.66
644.82 K, Crystal 2 | 85.65
645.82 K, Crystal 2 | 85.64
646.82 K, Crystal 2 | 85.62
647.82 K, Crystal 2 | 85.62
648.82 K, Crystal 2 | 85.61
649.82 K, Crystal 2 | 85.6
650.82 K, Crystal 2 | 85.59
651.82 K, Crystal 2 | 85.57
652.82 K, Crystal 2 | 85.57
653.82 K, Crystal 2 | 85.57
654.82 K, Crystal 2 | 85.57
655.82 K, Crystal 2 | 85.56
656.82 K, Crystal 2 | 85.56
657.82 K, Crystal 2 | 85.56
658.82 K, Crystal 2 | 85.56
659.82 K, Crystal 2 | 85.57
660.82 K, Crystal 2 | 85.56
661.82 K, Crystal 2 | 85.56
662.82 K, Crystal 2 | 85.57
663.82 K, Crystal 2 | 85.57
664.82 K, Crystal 2 | 85.57
665.82 K, Crystal 2 | 85.57
666.82 K, Crystal 2 | 85.57
667.82 K, Crystal 2 | 85.57
668.82 K, Crystal 2 | 85.57
669.82 K, Crystal 2 | 85.58
670.82 K, Crystal 2 | 85.59
671.82 K, Crystal 2 | 85.6
672.82 K, Crystal 2 | 85.61
673.82 K, Crystal 2 | 85.62
674.82 K, Crystal 2 | 85.63
675.82 K, Crystal 2 | 85.64
676.82 K, Crystal 2 | 85.66
677.82 K, Crystal 2 | 85.67
678.82 K, Crystal 2 | 85.69
679.82 K, Crystal 2 | 85.7
680.82 K, Crystal 2 | 85.72
681.82 K, Crystal 2 | 85.74
682.82 K, Crystal 2 | 85.75
683.82 K, Crystal 2 | 85.77
684.82 K, Crystal 2 | 85.79
685.82 K, Crystal 2 | 85.81
686.82 K, Crystal 2 | 85.83
687.82 K, Crystal 2 | 85.85
688.82 K, Crystal 2 | 85.87
689.82 K, Crystal 2 | 85.89
690.82 K, Crystal 2 | 85.92
691.82 K, Crystal 2 | 85.94
692.82 K, Crystal 2 | 85.96
693.82 K, Crystal 2 | 85.99
694.82 K, Crystal 2 | 86.01
695.82 K, Crystal 2 | 86.04
696.82 K, Crystal 2 | 86.06
697.82 K, Crystal 2 | 86.09
698.82 K, Crystal 2 | 86.12
699.82 K, Crystal 2 | 86.14
700.82 K, Crystal 2 | 86.04
701.82 K, Crystal 2 | 86.05
702.82 K, Crystal 2 | 86.06
703.82 K, Crystal 2 | 86.07
704.82 K, Crystal 2 | 86.08
705.82 K, Crystal 2 | 86.09
706.82 K, Crystal 2 | 86.1
707.82 K, Crystal 2 | 86.11
708.82 K, Crystal 2 | 86.12
709.82 K, Crystal 2 | 86.13
710.82 K, Crystal 2 | 86.14
711.82 K, Crystal 2 | 86.15
712.82 K, Crystal 2 | 86.16
713.82 K, Crystal 2 | 86.17
714.82 K, Crystal 2 | 86.18
715.82 K, Crystal 2 | 86.19
716.82 K, Crystal 2 | 86.2
717.82 K, Crystal 2 | 86.21
718.82 K, Crystal 2 | 86.22
719.82 K, Crystal 2 | 86.23
720.82 K, Crystal 2 | 86.24
721.82 K, Crystal 2 | 86.25
722.82 K, Crystal 2 | 86.26
723.82 K, Crystal 2 | 86.26
724.82 K, Crystal 2 | 86.27
725.82 K, Crystal 2 | 86.28
726.82 K, Crystal 2 | 86.29
727.82 K, Crystal 2 | 86.3
728.82 K, Crystal 2 | 86.3
729.82 K, Crystal 2 | 86.31
730.82 K, Crystal 2 | 86.32
731.82 K, Crystal 2 | 86.32
732.82 K, Crystal 2 | 86.33
733.82 K, Crystal 2 | 86.33
734.82 K, Crystal 2 | 86.34
735.82 K, Crystal 2 | 86.34
736.82 K, Crystal 2 | 86.35
737.82 K, Crystal 2 | 86.35
738.82 K, Crystal 2 | 86.35
739.82 K, Crystal 2 | 86.35
740.82 K, Crystal 2 | 86.36
741.82 K, Crystal 2 | 86.36
742.82 K, Crystal 2 | 86.36
743.82 K, Crystal 2 | 86.36
744.82 K, Crystal 2 | 86.36
745.82 K, Crystal 2 | 86.36
746.82 K, Crystal 2 | 86.35
747.82 K, Crystal 2 | 86.35
748.82 K, Crystal 2 | 86.35
749.82 K, Crystal 2 | 86.35
750.82 K, Crystal 2 | 86.34
751.82 K, Crystal 2 | 86.34
752.82 K, Crystal 2 | 86.33
753.82 K, Crystal 2 | 86.33
754.82 K, Crystal 2 | 86.32
755.82 K, Crystal 2 | 86.31
756.82 K, Crystal 2 | 86.31
757.82 K, Crystal 2 | 86.3
758.82 K, Crystal 2 | 86.29
759.82 K, Crystal 2 | 86.28
760.82 K, Crystal 2 | 86.27
761.82 K, Crystal 2 | 86.27
762.82 K, Crystal 2 | 86.26
763.82 K, Crystal 2 | 86.25
764.82 K, Crystal 2 | 86.24
765.82 K, Crystal 2 | 86.23
766.82 K, Crystal 2 | 86.21
767.82 K, Crystal 2 | 86.2
768.82 K, Crystal 2 | 86.19
769.82 K, Crystal 2 | 86.18
770.82 K, Crystal 2 | 86.17
771.82 K, Crystal 2 | 86.16
772.82 K, Crystal 2 | 86.14
773.82 K, Crystal 2 | 86.13
774.82 K, Crystal 2 | 86.12
775.82 K, Crystal 2 | 86.11
776.82 K, Crystal 2 | 86.1
777.82 K, Crystal 2 | 86.08
778.82 K, Crystal 2 | 86.07
779.82 K, Crystal 2 | 86.06
780.82 K, Crystal 2 | 86.05
781.82 K, Crystal 2 | 86.04
782.82 K, Crystal 2 | 86.02
783.82 K, Crystal 2 | 86.01
784.82 K, Crystal 2 | 86
785.82 K, Crystal 2 | 85.99
786.82 K, Crystal 2 | 85.98
787.82 K, Crystal 2 | 85.97
788.82 K, Crystal 2 | 85.96
789.82 K, Crystal 2 | 85.95
790.82 K, Crystal 2 | 85.95
791.82 K, Crystal 2 | 85.94
792.82 K, Crystal 2 | 85.93
793.82 K, Crystal 2 | 85.93
794.82 K, Crystal 2 | 85.92
795.82 K, Crystal 2 | 85.92
796.82 K, Crystal 2 | 85.91
797.82 K, Crystal 2 | 85.91
798.82 K, Crystal 2 | 85.91
799.82 K, Crystal 2 | 85.9
800.82 K, Crystal 2 | 85.91
801.82 K, Crystal 2 | 85.92
802.82 K, Crystal 2 | 85.93
803.82 K, Crystal 2 | 85.94
804.82 K, Crystal 2 | 85.95
805.82 K, Crystal 2 | 85.96
806.82 K, Crystal 2 | 85.97
807.82 K, Crystal 2 | 85.98
808.82 K, Crystal 2 | 85.99
809.82 K, Crystal 2 | 86
810.82 K, Crystal 2 | 86.01
811.82 K, Crystal 2 | 86.02
812.82 K, Crystal 2 | 86.03
813.82 K, Crystal 2 | 86.04
814.82 K, Crystal 2 | 86.05
815.82 K, Crystal 2 | 86.06
816.82 K, Crystal 2 | 86.07
817.82 K, Crystal 2 | 86.08
818.82 K, Crystal 2 | 86.09
819.82 K, Crystal 2 | 86.1
820.82 K, Crystal 2 | 86.11
821.82 K, Crystal 2 | 86.12
822.82 K, Crystal 2 | 86.13
823.82 K, Crystal 2 | 86.14
824.82 K, Crystal 2 | 86.15
825.82 K, Crystal 2 | 86.16
826.82 K, Crystal 2 | 86.17
827.82 K, Crystal 2 | 86.18
828.82 K, Crystal 2 | 86.19
829.82 K, Crystal 2 | 86.2
830.82 K, Crystal 2 | 86.21
831.82 K, Crystal 2 | 86.23
832.82 K, Crystal 2 | 86.24
833.82 K, Crystal 2 | 86.25
834.82 K, Crystal 2 | 86.26
835.82 K, Crystal 2 | 86.27
836.82 K, Crystal 2 | 86.28
837.82 K, Crystal 2 | 86.29
838.82 K, Crystal 2 | 86.3
839.82 K, Crystal 2 | 86.31
840.82 K, Crystal 2 | 86.32
841.82 K, Crystal 2 | 86.33
842.82 K, Crystal 2 | 86.34
843.82 K, Crystal 2 | 86.35
844.82 K, Crystal 2 | 86.36
845.82 K, Crystal 2 | 86.37
846.82 K, Crystal 2 | 86.38
847.82 K, Crystal 2 | 86.39
848.82 K, Crystal 2 | 86.4
849.82 K, Crystal 2 | 86.41
866.21 K, Crystal 1 | 90.42
867.21 K, Crystal 1 | 88.01
868.11 K, Crystal 1 | 89.24
869.11 K, Crystal 1 | 88.03
870.11 K, Crystal 1 | 87.13
871.11 K, Crystal 1 | 86.12
872.11 K, Crystal 1 | 85.33
873.11 K, Crystal 1 | 85.06
874.11 K, Crystal 1 | 84.83
875.11 K, Crystal 1 | 84.62
876.11 K, Crystal 1 | 84.44
877.11 K, Crystal 1 | 84.28
878.11 K, Crystal 1 | 84.13
879.11 K, Crystal 1 | 83.93
880.11 K, Crystal 1 | 83.85
881.11 K, Crystal 1 | 83.77
882.11 K, Crystal 1 | 83.69
883.11 K, Crystal 1 | 83.62
884.11 K, Crystal 1 | 83.55
885.11 K, Crystal 1 | 83.48
886.11 K, Crystal 1 | 83.41
887.11 K, Crystal 1 | 83.34
888.11 K, Crystal 1 | 83.28
889.11 K, Crystal 1 | 83.22
890.11 K, Crystal 1 | 83.17
891.11 K, Crystal 1 | 83.11
892.11 K, Crystal 1 | 83.06
893.11 K, Crystal 1 | 83.01
894.11 K, Crystal 1 | 82.97
895.11 K, Crystal 1 | 82.92
896.11 K, Crystal 1 | 82.88
897.11 K, Crystal 1 | 82.85
898.11 K, Crystal 1 | 82.81
899.11 K, Crystal 1 | 82.78
900.11 K, Crystal 1 | 82.75
901.11 K, Crystal 1 | 82.69
902.11 K, Crystal 1 | 82.64
903.11 K, Crystal 1 | 82.59
904.11 K, Crystal 1 | 82.54
905.11 K, Crystal 1 | 82.49
906.11 K, Crystal 1 | 82.45
907.11 K, Crystal 1 | 82.41
908.11 K, Crystal 1 | 82.37
909.11 K, Crystal 1 | 82.34
910.11 K, Crystal 1 | 82.3
911.11 K, Crystal 1 | 82.27
912.11 K, Crystal 1 | 82.25
913.11 K, Crystal 1 | 82.22
914.11 K, Crystal 1 | 82.2
915.11 K, Crystal 1 | 82.18
916.11 K, Crystal 1 | 82.16
917.11 K, Crystal 1 | 82.15
918.11 K, Crystal 1 | 82.14
919.11 K, Crystal 1 | 82.13
920.11 K, Crystal 1 | 82.13
921.11 K, Crystal 1 | 82.12
922.11 K, Crystal 1 | 82.12
923.11 K, Crystal 1 | 82.12
924.11 K, Crystal 1 | 82.13
925.11 K, Crystal 1 | 82.14
926.11 K, Crystal 1 | 82.15
927.11 K, Crystal 1 | 82.16
928.11 K, Crystal 1 | 82.18
929.11 K, Crystal 1 | 82.2
930.11 K, Crystal 1 | 82.22
931.11 K, Crystal 1 | 82.23
932.11 K, Crystal 1 | 82.25
933.11 K, Crystal 1 | 82.26
934.11 K, Crystal 1 | 82.27
935.11 K, Crystal 1 | 82.29
936.11 K, Crystal 1 | 82.3
937.11 K, Crystal 1 | 82.31
938.11 K, Crystal 1 | 82.32
